Like-named read-outs stand apart in the source and are kept apart here.
How the values were obtained:
[1] = system: methicillin-resistant Staphylococcus aureus (MRSA); assay: Determination of MIC values (BHI broth, 96 well microtiter plate); type: cell-based; conditions: Staphylococcus aureus, MRSA, BHI broth, read-out: MIC MRSA
Method: (§1) Stock solutions of compounds are prepared with a concentration of 10 mg/mL. These solutions are then diluted 1:4 to give a concentration of 2.5 mg/mL. The compounds are then serially diluted 1:2 for 6 iterations. The concentrations made for each compound are 2.5, 1.25, 0.625, 0.3125, 0.156, 0.078, and 0.039 mg/mL. A control sample (no compound) is run along with each compound tested. All dilutions are made in DMSO.
(§2) All wells of a 96 well microtiter plate are filled with 100 μL of BHI (Brain-Heart Infusion) broth. Columns on the plate are labeled 1-12, and rows are labeled A-H. Each column of wells is used to test one series of diluted compounds. Into each well of 100 μL of BHI broth, 1 μL of diluted compound is placed for a 1:100 dilution. This makes the final concentration of each drug series 25, 12.5, 6.25, 3.125, 1.56, 0.78, 0.39, and 0 μg/mL.
(§3) Test Organism: A sterile 15 mL screw cap tube is filled wth 3 mL of BHI broth. Next, 2-3 colonies of test organism are inoculated into the tube. The tube is then incubated at 37° C. in a CO2 (approx. 7%) atmosphere jar. The organisms are allowed to grow to the density of a 0.5 McFarland standard (10^8 cells/mL). The organism is then inoculated into each well of the microtiter plate containing the diluted compounds to be tested for MIC. The inoculum is 1 μL in volume and represents 10^5 to 10^6 cells/mL.
(§4) After inoculation the plates are covered and incubated at 37° C. and approx. 7-10% CO2 atmosphere overnight (about 16 hours). The plates are then observed for growth, the well with the lowest concentration of drug and no observable growth represents the well determining the MIC.

[2] = system: vancomycin-resistant Enterococcus spp. (VRE); assay: as above; type: cell-based; conditions: Enterococcus, VRE, BHI broth, read-out: MIC VREF
Method: as §1, §2, §3, §4

[3] = 16 h, 37° C., overnight (about 16 hours)

Row | Compound | MIC [1, 3] [µg/mL] | MIC [2, 3] [µg/mL] | other results
1 | O=C(Nc1ccccc1C(F)(F)F)N1CCN(C(=O)c2cc(-c3c[nH]c4ccc(Br)cc34)nc3ccccc23)CC1 [Example 64] | > 25 | > 25 | 
2 | O=C(O)c1cc(-c2c[nH]c3ccc(Br)cc23)nc2c(Cl)cccc12 [Example 141] | > 25 | > 25 | 
3 | NCc1ccc(CNC(=O)c2cc(-c3csc4ccccc34)nc3ccccc23)cc1 [Example 52] | < 25 | < 25 | 
4 | O=C(c1cc(-c2c[nH]c3ccc(Br)cc23)nc2ccc(Br)cc12)N1CCCNCC1 [Example 126] | < 7 | < 7 | 
5 | O=C(Nc1ccc(OC(F)(F)F)cc1)N1CCN(C(=O)c2cc(-c3c[nH]c4ccc(Br)cc34)nc3ccccc23)CC1 [Example 68] | < 7 | < 7 | 
6 | NCc1ccc(CNC(=O)c2cc(-c3c[nH]c4ccc(Br)cc34)nc3ncccc23)cc1 [Example 162] | > 25 | > 25 | 
7 | O=C(O)c1cc(-c2c[nH]c3cc(F)ccc23)nc2ccccc12 [Example 78] | > 25 | > 25 | 
8 | Cn1c(-c2ccccc2)c(-c2ccc3cc(Cl)ccc3n2)c2ccccc21 [Example 220] |  |  | MIC ([1]; overnight 37° C.): < 25 µg/mL; MIC ([2]; VREF, overnight 37° C.): > 25 µg/mL
9 | N#Cc1ccc2[nH]cc(-c3ccc4ccccc4n3)c2c1 [Example 190] | > 25 | > 25 | 
10 | O=[N+]([O-])c1ccc2[nH]cc(-c3ccc4ccccc4n3)c2c1 [Example 186] | > 25 | > 25 | 
11 | NCc1ccc(CNC(=O)c2cc(-c3ccccn3)nc3ccccc23)cc1 [Example 93] | > 25 | > 25 | 
12 | NC(=O)C(Cc1ccc2ccccc2c1)NC(=O)c1cc(-c2c[nH]c3ccc(Cl)cc23)nc2ccccc12 (stereo not drawn) [Example 147] | < 7 | < 7 | 
13 | NCc1ccc(CNC(=O)c2cc(-c3csc4ccc(Cl)cc34)nc3ccc(I)cc23)cc1 [Example 140] | > 25 | < 25 | 
14 | O=C(O)c1cc(-c2c[nH]c3ccccc23)nc2ccc(I)cc12 [Example 155] | > 25 | > 25 | 
15 | Cc1ccc2nc(-c3ccncc3)cc(C(=O)NCc3ccc(CN)cc3)c2c1 [Example 95] | > 25 | > 25 | 
16 | Cc1ccc2nc(-c3c[nH]c4ccc(C#N)cc34)ccc2c1 [Example 433] |  |  | MIC ([1]; 16 h, 37° C., about 16 hours): < 7 µg/mL; MIC ([2]; 16 h, 37° C., about 16 hours): > 25 µg/mL

Row | Compound | MIC [1, 3] [µg/mL] | MIC [2, 3] [µg/mL] | other results
17 | Cn1cc(-c2cc(C(=O)NCc3ccc(CN)cc3)c3ccccc3n2)c2ccccc21 [Example 12] | > 25 | > 25 | 
18 | NCc1ccc(CNC(=O)c2cc(-c3c[nH]c4ccc(Br)cc34)nc3ccc(OC(F)(F)F)cc23)cc1 [Example 55] | < 7 | < 7 | 
19 | O=C(O)c1cc(-c2c[nH]c3ccc(Br)cc23)nc2ccc(C#CCN3CCNCC3)cc12 [Example 207] |  |  | MIC ([1]; overnight 37° C.): > 25 µg/mL; MIC ([2]; VREF, overnight 37° C.): < 25 µg/mL
20 | NCc1ccc(CNC(=O)c2cc(-c3ccoc3)nc3ccccc23)cc1 [Example 82] | > 25 | > 25 | 
21 | O=C(c1cc(-c2c[nH]c3ccccc23)nc2ccccc12)N1CCNCC1 [compound 8] | > 25 | > 25 | 
22 | Cc1[nH]c2ccccc2c1-c1ccc2ccccc2n1 [Example 187] | > 25 | > 25 | 
23 | O=C(NCc1ccc(CNC(=O)c2cc(-c3c[nH]c4ccc(Br)cc34)nc3ccccc23)cc1)Nc1ccccc1 [Example 40] | > 25 | > 25 | 
24 | O=C(c1cc(C23CC4CC(CC(C4)C2)C3)nc2ccccc12)N1CCNCC1 [Example 25] | > 25 | > 25 | 
25 | Cc1ccc2c(c1)c(-c1ccc3cc(Cl)ccc3n1)cn2C [Example 216] |  |  | MIC ([1]; overnight 37° C.): < 25 µg/mL; MIC ([2]; VREF, overnight 37° C.): > 25 µg/mL
26 | NCc1ccc(CNC(=O)c2cc(-c3c[nH]c4ccccc34)nc3c(Cl)cccc23)cc1 [Example 160] | < 25 | < 25 | 
27 | NCc1ccc(CNC(=O)c2cc(-c3cccnc3)nc3ccc(Br)cc23)cc1 [Example 84] | < 7 | < 25 | 
28 | Fc1cccc2[nH]cc(-c3ccc4ccccc4n3)c12 [Example 182] | > 25 | > 25 | 
29 | NCc1ccc(CNC(=O)c2cc(-c3c[nH]c4cccc(F)c34)nc3ccccc23)cc1 [Example 79] | > 25 | > 25 | 
30 | NC(=O)C(Cc1ccc([N+](=O)[O-])cc1)NC(=O)c1cc(-c2c[nH]c3ccc(Cl)cc23)nc2ccccc12 (stereo not drawn) [Example 148] | < 7 | < 25 | 
31 | O=C(Nc1ccc(C(F)(F)F)cc1)N1CCN(C(=O)c2cc(-c3c[nH]c4ccc(Br)cc34)nc3ccccc23)CC1 [Example 65] | < 25 | < 7 | 
32 | NCCNC(=O)c1cc(-c2c[nH]c3ccc(Br)cc23)nc2cc(Cl)c(C#CCN3CCCCC3)cc12 [Example 488] |  |  | MIC ([1]; 16 h, 37° C., about 16 hours): < 7 µg/mL

More lines, main results first:

Row | MIC [1, 3] [µg/mL] | MIC [2, 3] [µg/mL] | Compound | other results
33 | < 7 | < 25 | NCc1ccc(CNC(=O)c2cc(-c3c[nH]c4ccc(Cl)cc34)nc3ccccc23)cc1 [Example 16] | 
34 | < 7 | > 25 | O=C(Nc1ccc(O)cc1)c1cc(-c2c[nH]c3ccc(Br)cc23)nc2ccccc12 [Example 37] | 
35 | < 25 | < 25 | NC1CCCCC1NC(=O)c1cc(-c2c[nH]c3ccc(Br)cc23)nc2ccccc12 (stereo not drawn) [compound 10] | 
36 | > 25 | > 25 | COC(=O)c1cc(-c2c[nH]c3ccc(Br)cc23)nc2ccccc12 [Example 24] | 
37 | > 25 | > 25 | O=C(O)c1cc(-c2c[nH]c3ccc(Br)cc23)nc2ccccc12 [Example 27] | 
38 | < 7 | < 7 | CNCCC(C)N(C)C(=O)c1cc(-c2c[nH]c3ccc(Br)cc23)nc2ccccc12 (stereo not drawn) [Example 33] | 
39 | > 25 | > 25 | NCCC(=O)NCc1ccc(CNC(=O)c2cc(-c3c[nH]c4ccc(Br)cc34)nc3ccccc23)cc1 [Example 72] | 
40 | < 25 | < 25 | CNC1CCN(C(=O)c2cc(-c3c[nH]c4ccc(Br)cc34)nc3ccccc23)CC1 [Example 31] | 
41 | > 25 | > 25 | NCc1ccc(CNC(=O)c2cc(-c3c[nH]c4ccc(Br)cc34)nc3ccc(CO)cc23)cc1 [Example 100] | 
42 | < 25 | < 25 | O=C(c1cc(-c2c[nH]c3ccc(Br)cc23)nc2ccccc12)N1CCNCC1 [compound 11] | 
43 | < 25 | < 25 | NCCCNC(=O)c1cc(-c2c[nH]c3ccc(Br)cc23)nc2ccccc12 [compound 3] | 
44 | < 25 | > 25 | Cc1ccc2[nH]cc(-c3cc(C(=O)NCc4ccc(CN)cc4)c4ccccc4n3)c2c1 [Example 17] | 
45 | < 7 | < 7 | NCCCCCCNC(=O)c1cc(-c2c[nH]c3ccc(Br)cc23)nc2ccccc12 [Example 59] | 
46 | < 25 | > 25 | NCC(=O)NCc1ccc(CNC(=O)c2cc(-c3c[nH]c4ccc(Br)cc34)nc3ccccc23)cc1 [Example 71] | 
47 | < 25 | < 25 | CN(C)Cc1ccc(CNC(=O)c2cc(-c3c[nH]c4ccc(Br)cc34)nc3ccccc23)cc1 [Example 92] | 
48 | < 7 | < 7 | NCc1ccc(CNC(=O)c2cc(-c3c[nH]c4ccc(Br)cc34)nc3ccc(Br)cc23)cc1 [Example 120] | 
49 | < 7 | > 25 | O=C(NCc1nc2ccccc2[nH]1)c1cc(-c2c[nH]c3ccc(Br)cc23)nc2ccccc12 [Example 38] | 
50 | < 25 | < 25 | NC1CCC(NC(=O)c2cc(-c3c[nH]c4ccc(Br)cc34)nc3ccccc23)CC1 (stereo not drawn) [Example 106] | 

— US6376670B1, “Quinoline-indole antimicrobial agents, uses and compositions related thereto” (Sepracor Inc., priority 1997, dated 2002)
